Active and inactive are the calls of the source.
Experiments:
[1] = target: T1, Rac GTPase-activating protein 1 (Homo sapiens, UniProt Q9H0H5); assay: blockers of MgcRacGAP-driven Rac1 GTP hydrolysis – biochemical, ADP Hunter fluorescence, primary and confirmatory, confirmation (AID 624330); format: functional
T1 sequence (Q9H0H5 whole entry): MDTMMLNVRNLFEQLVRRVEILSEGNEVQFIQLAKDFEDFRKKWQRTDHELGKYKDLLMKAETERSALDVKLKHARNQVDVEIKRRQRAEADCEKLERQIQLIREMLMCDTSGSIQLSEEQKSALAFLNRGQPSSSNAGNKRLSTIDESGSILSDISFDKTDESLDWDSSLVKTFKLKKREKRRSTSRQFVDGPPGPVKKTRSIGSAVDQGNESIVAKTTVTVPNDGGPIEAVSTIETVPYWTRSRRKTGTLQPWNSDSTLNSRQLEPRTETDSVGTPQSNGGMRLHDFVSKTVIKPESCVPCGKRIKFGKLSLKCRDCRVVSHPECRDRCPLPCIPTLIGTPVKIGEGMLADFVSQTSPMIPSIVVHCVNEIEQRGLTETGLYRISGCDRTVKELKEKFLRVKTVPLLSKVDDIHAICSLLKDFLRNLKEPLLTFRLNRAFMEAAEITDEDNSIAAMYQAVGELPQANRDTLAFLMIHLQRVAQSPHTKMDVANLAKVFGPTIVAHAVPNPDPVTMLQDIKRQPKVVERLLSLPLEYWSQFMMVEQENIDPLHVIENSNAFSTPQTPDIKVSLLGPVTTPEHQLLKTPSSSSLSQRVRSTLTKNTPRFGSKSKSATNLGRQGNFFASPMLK

[2] = target: T2, Replicative DNA helicase DnaB (Mycobacterium tuberculosis, UniProt P9WMR3); assay: DnaB intein splicing inhibitors, dose response, biochemical, cell-free fluorescence (AID 449749); format: functional
T2 sequence (P9WMR3 whole entry): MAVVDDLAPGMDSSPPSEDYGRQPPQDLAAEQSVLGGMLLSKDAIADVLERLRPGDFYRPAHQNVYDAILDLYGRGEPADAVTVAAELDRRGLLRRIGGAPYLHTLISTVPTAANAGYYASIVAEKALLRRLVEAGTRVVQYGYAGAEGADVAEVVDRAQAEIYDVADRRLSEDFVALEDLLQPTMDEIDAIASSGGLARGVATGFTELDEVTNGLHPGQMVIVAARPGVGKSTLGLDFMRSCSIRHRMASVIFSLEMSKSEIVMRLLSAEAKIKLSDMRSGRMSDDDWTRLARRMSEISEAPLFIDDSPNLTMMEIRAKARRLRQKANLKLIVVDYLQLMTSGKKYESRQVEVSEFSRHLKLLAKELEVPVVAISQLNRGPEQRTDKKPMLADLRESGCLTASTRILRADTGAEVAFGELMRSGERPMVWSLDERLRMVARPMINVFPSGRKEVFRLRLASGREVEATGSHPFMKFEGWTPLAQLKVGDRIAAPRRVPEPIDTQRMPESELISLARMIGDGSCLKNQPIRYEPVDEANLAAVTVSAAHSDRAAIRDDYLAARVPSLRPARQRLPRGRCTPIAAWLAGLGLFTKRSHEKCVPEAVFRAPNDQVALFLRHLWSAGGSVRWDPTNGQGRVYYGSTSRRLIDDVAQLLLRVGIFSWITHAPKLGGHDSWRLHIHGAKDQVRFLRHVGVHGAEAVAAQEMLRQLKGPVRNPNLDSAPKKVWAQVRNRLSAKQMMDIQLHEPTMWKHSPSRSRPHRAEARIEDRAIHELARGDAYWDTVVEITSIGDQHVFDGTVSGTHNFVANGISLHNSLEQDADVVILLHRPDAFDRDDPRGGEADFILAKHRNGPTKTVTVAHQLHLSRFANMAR

[3] = target: T3, Protein RecA (Mycobacterium tuberculosis, UniProt P9WHJ3); assay: Fluorescence Cell-Free Homogeneous Dose Retest to Identify Inhibitors of RecA-Intein Splicing Activity. [Related pubchem assays (depositor defined):AID2097, AID2223, AID489010, AID492950]; format: functional
T3 sequence (P9WHJ3 whole entry): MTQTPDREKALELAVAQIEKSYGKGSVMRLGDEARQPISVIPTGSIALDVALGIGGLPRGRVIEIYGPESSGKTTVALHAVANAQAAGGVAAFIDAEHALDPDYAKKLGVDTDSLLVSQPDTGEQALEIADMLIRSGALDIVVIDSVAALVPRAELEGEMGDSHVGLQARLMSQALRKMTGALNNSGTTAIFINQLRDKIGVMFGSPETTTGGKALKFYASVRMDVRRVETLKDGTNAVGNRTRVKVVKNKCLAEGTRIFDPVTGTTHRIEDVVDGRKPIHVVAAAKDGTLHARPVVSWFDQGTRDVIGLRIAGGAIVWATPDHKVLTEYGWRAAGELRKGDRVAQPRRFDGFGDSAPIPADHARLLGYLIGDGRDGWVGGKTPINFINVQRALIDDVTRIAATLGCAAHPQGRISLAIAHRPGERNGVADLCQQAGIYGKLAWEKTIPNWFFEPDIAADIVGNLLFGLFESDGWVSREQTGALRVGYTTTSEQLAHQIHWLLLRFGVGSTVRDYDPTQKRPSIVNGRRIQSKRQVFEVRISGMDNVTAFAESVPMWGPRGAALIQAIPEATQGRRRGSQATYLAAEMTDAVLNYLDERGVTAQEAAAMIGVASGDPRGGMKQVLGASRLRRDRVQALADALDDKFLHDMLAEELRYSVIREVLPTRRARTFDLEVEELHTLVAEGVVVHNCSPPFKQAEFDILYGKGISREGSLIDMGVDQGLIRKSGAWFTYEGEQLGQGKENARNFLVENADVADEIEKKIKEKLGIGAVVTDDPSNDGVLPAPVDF

[4] = system: H9c2; assay: cells; format: functional, cell-based; settings: Rattus norvegicus, H9c2, Myocardium;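 note: confirmatory concentration-response retest of ultra-high-throughput screening hits for modulation of myocardial damage; cell death induced by hydrogen peroxide oxidative stress; compound pretreatment for 60 min then peroxide exposure for 2 h; potency is for protecting the cells against peroxide damage rather than for killing them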
[5] = system: BJ; assay: BJ-TERT fibroblast viability loss – cell-based, RAS-independent, luminescence, dose response (AID 1933); format: functional; settings: Homo sapiens
[6] = system: BJ; assay: cells; format: functional, cell-based; settings: Homo sapiens
[7] = system: BJ; assay: BJ-TERT-LT-ST fibroblast viability loss – cell-based, RAS-independent, luminescence, dose response (AID 1935); format: functional; settings: Homo sapiens;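 note: BJ fibroblasts immortalized with TERT plus LT and ST oncogenes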
[8] = DRD fibroblast viability loss – cell-based, non-viral oncogenic, luminescence, dose response (AID 1934); format: functional; settings: Homo sapiens
[9] = target: FAD-linked sulfhydryl oxidase ALR (Homo sapiens, UniProt P55789); assay: ALR-catalysed DTT oxidation blockers – biochemical, H2O2 detection, luminescence, cherry-pick, dose response (AID 493248)
Chain of FAD-linked sulfhydryl oxidase ALR (P55789 whole entry): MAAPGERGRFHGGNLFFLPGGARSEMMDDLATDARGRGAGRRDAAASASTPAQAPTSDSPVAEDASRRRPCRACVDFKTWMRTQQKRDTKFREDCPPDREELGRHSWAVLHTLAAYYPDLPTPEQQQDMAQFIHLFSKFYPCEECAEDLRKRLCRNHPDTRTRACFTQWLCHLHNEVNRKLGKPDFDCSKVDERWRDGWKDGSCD

[10] = viability of uninfected HEp-2 cells – cell-based, HTS, cytotoxicity control for RSV inhibitor project, dose response (AID 2410); format: functional; settings: human respiratory syncytial virus
[11] = Luminescence Cell-Based Dose Retest to Confirm Inhibitors of Cancer Stem Cells. [Related pubchem assays (depositor defined):AID2717, AID2721]; format: functional; settings: Homo sapiens
[12] = system: INS1; assay: INS-1E survival protection against cytokine death – cell-based, luminescence, retest, dose response (AID 449756); format: functional; settings: Rattus norvegicus;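 note: cell death triggered by IL-1 beta plus TNF-alpha plus IFN-gamma mixture; protective hits raise ATP signal compared with cytokine alone wells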

## Cc1cc(-c2cc(C)c(N)cc2C)c(C)cc1N
[1]
  IC50: 101 µM (active)

## N#Cc1c(N)n(CCOC(=O)c2ccc(Cl)cc2)c2nc3ccccc3nc12
[2]
  AC50: 3.18 µM (active)
[3]
  EC50: 1.8 µM (active)

## CSc1ccc(CN2CCC(N3CC(C)OC(C)C3)CC2)cc1 (centres undefined)
[1]
  IC50: 72.4 µM (active)

## CCOC(=O)c1cc(-c2ccc(/C=N\n3cnnc3)o2)ccc1Cl
[4]
  IC50: > 79 µM (inactive)

## O=C1c2cc([N+](=O)[O-])ccc2-c2ncccc21
[5]
  EC50: 24.4 µM (active)
[6]
  EC50: > 150 µM (not active)
[7]
  EC50: > 150 µM (not active)
[8]
  EC50: > 150 µM (not active)
[2]
  AC50: 36.7 µM (active)
[3]
  EC50: 11.1 µM (active)

## COC(=O)c1ccc(CSc2nc3ccccc3c(=O)n2Cc2ccco2)o1
[9]
  AC50: 4.51 µM (active)

## O=C(c1[nH]nc2c1CCC2)N1CCCC(Nc2cccc(F)c2)C1 (centres undefined)
[9]
  AC50: 19.5 µM (active)

## COc1cccc(-c2ncc3ccccn23)c1
[10]
  CC50: 44.1 µM (active)
[1]
  IC50: 136 µM (active)

## COc1ccc(NC2CCCN(C(=O)CCc3cccc(F)c3)C2)cc1 (centres undefined)
[1]
  IC50: 74.6 µM (active)

## Cn1c(=O)c2c(nc(NCc3ccc4c(c3)OCO4)n2C)n(C)c1=O
[4]
  IC50: 36.1 µM (inactive)

## NS(=O)(=O)c1ccc(CCNC(=O)CN2CCN(c3ccccc3O)CC2)cc1
[9]
  AC50: 3.94 µM (active)

## COc1ccc(-c2cc(-c3nnc(S)n3-c3ccccc3OC)[nH]n2)cc1
[9]
  AC50: 41.1 µM (active)

## COCc1n[nH]c2c1C(c1ccccc1OC)C(C#N)=C(N)O2 (centres undefined)
[2]
  AC50: 22 µM (active)
[3]
  EC50: 4.77 µM (active)

## O=C(C#Cc1ccccc1)Nc1cccc(F)c1
[11]
  AC50: 2.35 µM (active)
[9]
  AC50: 2 µM (active)
[12]
  AC50: 8.05 µM (active)

Source: ChEMBL document CHEMBL1201862, “PubChem BioAssay data set” (2004)
